Assays:
delta opioid receptor = biological target: T1, delta opioid receptor (Rattus norvegicus, UniProt P33533); experiment: Rat Brain Delta Opioid Receptor Binding Assay-Version 1a ([3H]naltrindole); settings: rat forebrain membranes, 0.1 nM [3H]naltrindole; margin of error 10-20%; read-out: r Ki δ Ver. 1a
T1 construct: from tissue; host or cells: forebrain of male Wistar rats
Experimental: Male, Wistar rats (150-250 g, VAF, Charles River, Kingston, N.Y.) were killed by cervical dislocation, and their brains removed and placed immediately in ice-cold Tris HCl buffer (50 mM, pH 7.4). The forebrains were separated from the remainder of the brain by a coronal transection, beginning dorsally at the colliculi and passing ventrally through the midbrain-pontine junction. After dissection, the forebrains were homogenized in Tris buffer in a Teflon®-glass homogenizer. The homogenate was diluted to a concentration of 1 g of forebrain tissue per 80 mL Tris and centrifuged at 39,000×g for 10 min. The pellet was resuspended in the same volume of Tris buffer containing 5 mM MgCl2 with several brief pulses from a Polytron homogenizer. This particulate preparation was used for the delta opioid binding assay. Following incubation with 0.1 nM of the delta selective ligand [^3H]naltrindole at 25° C. for 2.5 h in a 96-well plate with total 1 mL, the plate contents were filtered through Wallac filtermat B sheets on a Tomtec 96-well harvester. The filters were rinsed three times with 2 mL of 10 mM HEPES (pH 7.4), and dried in a microwave oven. To each sample area, Betaplate Scint scintillation fluid (LKB) was added and the resulting radioactivity quantified on a LKB (Wallac) 1205 BetaPlate liquid scintillation counter. Kd and Ki values were calculated using the GraphPad PRISM data analysis program.

rats = experiment: Visceral Hyperalgesia Testing (colorectal balloon distention following zymosan); type: in vivo, rat; settings: 30 mg/kg i.p., 5 rats, repeated distentions of 40 mmHg
Experimental: Method: Rats were chronically instrumented with EMG electrodes in the muscles of the anterior abdominal wall. Distention of an intracolonic balloon, using a barostat apparatus, evoked increases in the EMG recordings that are related to the pressure. Control responses are compared with repeat stimulation 4 hours after zymosan is administered to the colon (FIG. 1).

T1 sequence (P33533 whole entry): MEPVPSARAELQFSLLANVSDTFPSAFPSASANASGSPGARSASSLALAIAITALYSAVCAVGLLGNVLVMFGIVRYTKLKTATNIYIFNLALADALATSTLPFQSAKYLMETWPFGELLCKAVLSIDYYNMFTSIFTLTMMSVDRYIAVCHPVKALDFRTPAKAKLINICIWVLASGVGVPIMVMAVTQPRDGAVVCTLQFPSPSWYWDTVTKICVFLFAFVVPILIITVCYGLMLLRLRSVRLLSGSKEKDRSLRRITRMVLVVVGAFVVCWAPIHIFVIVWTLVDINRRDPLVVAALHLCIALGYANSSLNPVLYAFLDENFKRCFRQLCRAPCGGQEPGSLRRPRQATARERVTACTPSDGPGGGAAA

Cc1cc(O)cc(C)c1C[C@H](N)C(=O)N(Cc1cccc(C(=O)O)c1)[C@@H](C)c1nc(-c2ccccc2)c[nH]1 [Cpd 48] showed a Ki (delta opioid receptor) of 0.00024 µM.
In the case of COC(=O)c1ccc(CN(C(=O)[C@@H](N)Cc2ccc(C(N)=O)cc2)[C@@H](C)c2nc(-c3ccccc3)c[nH]2)o1 [Cpd 303], the Ki (delta opioid receptor) is reported as 0.0245 µM.
COC(=O)c1ccc(CN(C(=O)[C@@H](N)Cc2c(C)cc(C(N)=O)cc2C)[C@@H](C)c2nc(-c3ccccc3)c[nH]2)o1 [Cpd 257] was tested, and the Ki (delta opioid receptor) was 0.014 µM.
With COc1ccc(CN(C(=O)[C@@H](N)Cc2c(C)cc(C(N)=O)cc2C)[C@@H](C)c2nc(-c3ccccc3)c[nH]2)cc1C(=O)O [Cpd 18] the “hyperalgesic response to colorectal balloon distention following zymosan” value (rats) was “blocked the hyperalgesic response”.

From patent US10213415B2, “Compounds as opioid receptor modulators” (JANSSEN PHARMACEUTICA NV, priority 2004, dated 2019)
